Here are results for eight compounds from ChEMBL document CHEMBL1122825, “Peptide sweeteners. 8. Synthesis and structure-taste relationship studies of L-aspartyl-D-alanyl tripeptides” (J Med Chem, 1985).

Where a SMILES comes first, the peptide text is derived from it. [ ]: non-standard residue; d: D form. Ac6c = NC1(C(=O)O)CCCCC1; Ac5c = NC1(C(=O)O)CCCC1; Ac4c = NC1(C(=O)O)CCC1; Deg = CCC(N)(CC)C(=O)O; Ac3c = NC1(C(=O)O)CC1; Aib = CC(C)(N)C(=O)O

Assay [1] can be described thus: Compound is evaluated for sweet potency; -=Bitter.
Assay [2] in a line: Compound is evaluated for sweet potency; +=Sweet.

`COC(=O)C1(NC(=O)[C@H](C)NC(=O)[C@@H](N)CC(=O)O)CCCCCC1`: in assay [1], the Sweetness potency entry was “Bitter”.

Regarding `COC(=O)C1(NC(=O)[C@H](C)NC(=O)[C@@H](N)CC(=O)O)CCCCCCC1`, in assay [1], the Sweetness potency result is on record as “Bitter”.

As for `COC(=O)C1(NC(=O)[C@H](C)NC(=O)[C@@H](N)CC(=O)O)CC1` (H-Asp-Ala-[Ac3c]-OMe), in assay [2], the Sweetness potency result is listed as “Sweet”. Still for that read-out and setting: the value for `COC(=O)C1(NC(=O)[C@H](C)NC(=O)[C@@H](N)CC(=O)O)CCC1` (H-Asp-Ala-[Ac4c]-OMe) was “Sweet”. Still for that read-out and setting: under `COC(=O)C1(NC(=O)[C@H](C)NC(=O)[C@@H](N)CC(=O)O)CCCC1` (H-Asp-Ala-[Ac5c]-OMe) stands “Sweet”; under `COC(=O)C1(NC(=O)[C@H](C)NC(=O)[C@@H](N)CC(=O)O)CCCCC1` (H-Asp-Ala-[Ac6c]-OMe), “Sweet”. As for `COC(=O)C(C)(C)NC(=O)[C@H](C)NC(=O)[C@@H](N)CC(=O)O` (H-Asp-Ala-[Aib]-OMe), the Sweetness potency result in assay [2] was “Sweet”. Still for that read-out and setting: under `CCC(CC)(NC(=O)[C@H](C)NC(=O)[C@@H](N)CC(=O)O)C(=O)OC` (H-Asp-Ala-[Deg]-OMe) stands “Sweet”.
